Test results taken from patent US9365851B2, “Spalt-like transcription factor 4 (SALL4) and uses thereof” (National University of Singapore, priority 2011, dated 2016).
pIC50: −log10 of the molar value. Like-named read-outs stand apart in the source and are kept apart here.

How the values were obtained:
[1] = test system: THP1 cells; test: MTS cell viability assay; type: cell-based; conditions: THP1, 72 h
Procedure: (§1) Multiple leukemic and solid tumor cancer cell lines with high or low/no SALL4 expression (FIG. 10A) were chosen to test the biological effect(s) of the wild type peptide. Wild type or scrambled peptide was delivered into tumor cells at various concentrations, and their effects on cells were evaluated 72 hours post-treatment by the MTS cell viability assay. […] The effect of wild type peptide is SALL4-specific, as it had no effect on KBM5, an AML cell line with undetectable endogenous SALL4 expression. We were surprised to see that the wild type peptide had no effect on a high SALL4-expressing endometrioid cancer cell line, AN3CA. This prompted checking whether PTEN, a gene repressed by SALL4 through its interaction with NuRD 27, was present in this cell line. According to the model herein, the function of wild type peptide requires both the expression of SALL4 and intact SALL4 downstream target genes, such as PTEN. In tumor cells with PTEN deletion, even though wild type peptide could compete with endogenous SALL4 in interacting with the HDAC complex, an anti-proliferative effect might not be observed. Therefore, expression of PTEN was evaluated in AN3CA cells along with other cell lines. While PTEN protein was present in all the other cell lines, it was absent in AN3CA cells (FIG. 10C), with reported deletion mutation of the gene in this cell line 40,41. […] Furthermore, the anti-proliferative effect also required certain downstream targets, such as PTEN.
(§2) To further test whether the effect of wild type peptide on tumor cells is related to PTEN, a PTEN inhibitor (SF1670) was used (Li et al., Blood, 117:6702-6713). […] As a control for the specificity of SALL4, KBM5, a non-SALL4-expressing cell line was also treated with PTEN inhibitor.

[2] = test system: KBM5 cells; test: MTS cell viability assay; type: cell-based; conditions: KBM5 (no SALL4), 72 h
Procedure: as §1, §2

[3] = test system: SNU-398 cells; test: Subcutaneous transplantation of peptide pre-treated SNU-398 cells into NOD/SCID mice; type: in vivo; conditions: for subcutaneous tumor volume / size: cells treated in vitro with 20 μM peptide
Procedure: Cell viability was determined 72 hours after peptide treatments. Absorbance at 490 nm is directly correlated to cell viability. Wild type functional SALL4 peptide (wt), mutant non-functional SALL4 peptide (Mut.), trichostatin A (TSA), scrambled control peptide (Scr.), wild type peptide+PTEN inhibitor SF1670 (wt+Inh.) were given to the cells at the indicated concentration. PTEN inhibitor concentration was 400 nM. (31C, 31D) Western blot analyses of the effects of peptides on PTEN, AKT, and pAKT expression on SNU-398 (31C) and SNU-387 (31D) cells 72 hours following peptide treatments. 20 μM of wt or Scr. peptide or 100 nM of TSA was used. PTEN inhibitor concentration was 400 nM. (31E) Representative images show NOD/SCID mice transplanted with Scr peptide- and wt peptide-treated SNU-398 cells (left) and the dissected subcutaneous tumors (right). Arrow indicates subcutaneous tumor. (31F) Growth curve of subcutaneous tumors (left panel) and tumor weight of tumors dissected at day 26 post-transplantation (right panel). Results are mean±s.d. n=5; * P<0.05. (31G) Representative images show NOD/SCID mice transplanted with 3 million SNU-398 cells at the left flank and treated intraperitoneally for five consecutive days with 56 mg/kg body weight TAT-Mut. peptide or 60 mg/kg body weight wt peptide (top panel) and the dissected subcutaneous tumors (bottom). (31H) Tumor weight of tumors dissected at day 18 post-transplantation and post-treatment of mice treated intraperitoneally with TAT fusion peptides as described in 5 g. Results are mean±s.d. n=5; * P<0.05.
To test the therapeutic effect of this peptide in vivo, SNU-398 cells were subjected to in vitro treatment with 20 μM of wt or Scr. peptide and transplanted the peptide-treated cells subcutaneously into the flanks of NOD/SCID mice.

[4] = test system: HuH-7 cells; test: Cell viability assay (MTT/MTS); type: cell-based, human; conditions: HuH-7, 72 h
Procedure: Cell viability assay (MTT) (Invitrogen) was performed according to the manufacturer's instructions. Briefly—10000 cells were seeded in 100 ul medium in 96 well plates. The next day cells were treated as indicated on the figures. At the designated time after the treatment 20 ul of 5 mg/ml MTT solution was added to each well. After 3.5 h incubation at 37 C the medium was removed and the reaction was terminated with a solution of 4 mM HCl, 0.1% Nondet P-40 (NP40) all in isopropanol in dark on orbital shaker for […]. at room temperature. The absorbance was read at 590 nm with a reference filter of 620 nm in Spectromax M3 (ABI) spectrophotometer.
Multiple leukemic and solid tumor cancer cell lines with high or low/no SALL4 expression (FIG. 10A) were chosen to test the biological effect(s) of the wild type peptide. Wild type or scrambled peptide was delivered into tumor cells at various concentrations, and their effects on cells were evaluated 72 hours post-treatment by the MTS cell viability assay. […] The effect of wild type peptide is SALL4-specific, as it had no effect on KBM5, an AML cell line with undetectable endogenous SALL4 expression. We were surprised to see that the wild type peptide had no effect on a high SALL4-expressing endometrioid cancer cell line, AN3CA. This prompted checking whether PTEN, a gene repressed by SALL4 through its interaction with NuRD 27, was present in this cell line. According to the model herein, the function of wild type peptide requires both the expression of SALL4 and intact SALL4 downstream target genes, such as PTEN. In tumor cells with PTEN deletion, even though wild type peptide could compete with endogenous SALL4 in interacting with the HDAC complex, an anti-proliferative effect might not be observed. Therefore, expression of PTEN was evaluated in AN3CA cells along with other cell lines. […]
7000 cells were seeded in each wells of a microtiter plate in 100 μL of complete medium. […] After four hours incubation of the tetrazolium salt, absorbance at 490 nm was read by a microplate reader.

[5] = target: T1, HDAC complex (Homo sapiens, UniProt Q09028); test: Fluorescent polarization competitive binding in SNU-398 nuclear extracts; conditions: unlabeled peptide competing with FITC-labeled peptide
T1 construct: endogenous in cells; host or cells: SNU-398 nuclear extract
Procedure: Below are the amino acid sequences of the peptides used in this study. In the mutant peptide (mut), Lys 5 is replaced with an alanine residue. […] In the first lane marked “Input”, 10% of the extracts were subjected to western blot analysis without immunoprecipitation. […] Extracts were subsequently immunoprecipitated with anti-FITC antibody and the complexes pulled down were subjected to an HDAC activity assay as described in the methods. TSA was added at a concentration of 100 nM. Input is the sample in which 10% of the extract was assayed for HDAC activity without the immunoprecipitation step. […] Competitive binding of nonlabeled wild type or scrambled peptides was measured by fluorescent polarization. […] The fluorescent polarization (y axis) is decreased if the FITC-labeled peptide is displaced from a larger complex.
Next tested was the binding affinity of the wild type and scrambled peptides to the HDAC complex. For this, Fluorescent Polarization (FP), a technology based on molecular movement and rotation in which fluorescent molecules are excited with polarized light, was used. If the fluorescent molecules are part of a large complex, they rotate less and the emitted light has high polarity. In contrast, smaller molecules rotate faster and have low polarity (“depolarized”). […] Using this approach, FITC-labeled wild type or scrambled peptides were first mixed with nuclear extracts from SNU-398 cells. Serial dilutions of unlabeled wild type or scrambled peptides were then added as competitors respectively, and measured by FP assay.

[6] = test system: PC9 cells; test: Peptide treatment of lung cancer cells; type: cell-based
Text: 56B: Cell image after SALL4 knockdown in H522 cells.
A small peptide has been generated to block the oncogenic function of SALL4. […] Therefore, shown herein is that SALL4 plays a crucial role in tumor initiation and development of NSCLC, and targeting SALL4 may provide an innovated therapeutic approach in the treatment of lung cancer.

T1 sequence (Q09028 whole entry, one chain of several): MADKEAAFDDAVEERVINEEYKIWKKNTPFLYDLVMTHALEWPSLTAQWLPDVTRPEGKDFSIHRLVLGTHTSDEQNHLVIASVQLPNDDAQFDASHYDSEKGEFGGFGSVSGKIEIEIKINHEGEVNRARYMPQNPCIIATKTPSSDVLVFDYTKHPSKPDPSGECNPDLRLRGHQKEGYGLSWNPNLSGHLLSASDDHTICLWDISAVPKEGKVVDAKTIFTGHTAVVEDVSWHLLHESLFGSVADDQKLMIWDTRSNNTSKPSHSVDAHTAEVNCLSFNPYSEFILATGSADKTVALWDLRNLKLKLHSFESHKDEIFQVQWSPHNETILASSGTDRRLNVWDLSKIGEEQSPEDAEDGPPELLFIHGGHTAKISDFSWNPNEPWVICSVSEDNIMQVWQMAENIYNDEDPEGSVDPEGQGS

Q: “H-MSRRKQAKPQHI-OH [wt peptide, MSRRKQAKPQHI]” was tested. Which cell viability [1] did it give?
A: decreased cell viability

Q: What about the cell viability ([2]; listed as wild type) of the same substance?
A: no change in cell viability

Q: What about the cell viability ([2]; listed as wild type peptide) of the same substance?
A: had no effect

Q: What about the “subcutaneous tumor volume / size” value [3] of the same substance?
A: significantly reduced

Q: And the “tumor burden (weight post-dissection)” value ([3]; day 26)?
A: the tumor load was reduced

Q: And the cell viability [4]?
A: reduced the cell viability

Q: What about the cell viability ([4]; listed as wild type peptide) of the same substance?
A: decreased cell viability

Q: And the pIC50 ([5]; read-out: IC50)?
A: 5.30

Q: What about the “cell growth / cell death” value ([6]; listed as Wt) of the same substance?
A: cell growth arrest

Q: What about the “cell growth / cell death” value ([6]; listed as small peptide) of the same substance?
A: resulted in cell death

Q: Which cell viability [1] does the source give for “Scr peptide: same 12 amino acids as the wt peptide, but in a scrambled sequence; negative control (SRMRQKIHPKIQ) [reference compound]” here?
A: remained unaffected

Q: And the cell viability [2]?
A: no change in cell viability

Q: What about the “subcutaneous tumor volume / size” value [3] of the same substance?
A: grew into larger subcutaneous tumors

Q: And the cell viability [4]?
A: remained unaffected

Q: And the IC50 [5]?
A: could not be calculated due to the lack of binding activity

Q: And the “cell growth / cell death” value [6]?
A: no effect on the cells
